From the supplement of paper PMC11208160 come the findings set out here.
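Also: IS621 recombinase and bridge RNA in Escherichia coli cells.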

This data set can be described thus: recombinant barcode read abundance after kanamycin selection (control-corrected) (log10(CPM+1)); higher = more efficient recombination; sequences stand for … in AGTGCAGAGAAAATCGGCCAGTTTTCTCTGCCTGCAGTCCGCATGCCGT…AGATTTATGCAGCGGACTGCCTTTCTCCCAAAGTGATAAACCGGACAGTATCATGGACCGGTTTTCCCGGTAATCCGTATTTGCAAGGTTGGTTTCACT; site = the 11-nt target. In outline:
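IS621 bridge RNA target-binding loops were paired with targets in a pooled library tested in E. coli. After co-electroporation with a donor plasmid, cells were plated in two replicates on chloramphenicol/ampicillin LB agar (control) and on chloramphenicol/ampicillin/kanamycin carrying 0.1 mM IPTG. Barcodes at recombinant junctions were counted as counts per million, averaged and control-corrected to give recombination efficiency. Values are log10(CPM+1).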
For the sequence “CACTTGACTTGGGTTCTAACCTGTTGCCT (site CACTTGTCTAG)”, the “recombinant barcode read abundance (log10)” value was found to be 0.0323.
Take “CACTTGACTTGGGTTCTAACCTGTTGCTT (site CACTTGACTAA)”: the “recombinant barcode read abundance (log10)” value was found to be 0.331.
In the case of “CACTTGACTTGGGTTCTAACCTGTTGCTT (site CGCTTGTCTAA)” it was 0.075; in that of “CACTTGTCTTGGGTTCTAACCTGTTGCCT (site CACTTGACTAG)”, 0.0529; in that of “CACTTGTCTTGGGTTCTAACCTGTTGCCT (site CACTTGCCTAG)”, 0.0539.
“CACTTGTCTTGGGTTCTAACCTGTTGCCT (site CACTTGGCTAG)”: the “recombinant barcode read abundance (log10)” value is 0.283.
In the case of “CACTTGTCTTGGGTTCTAACCTGTTGCCT (site CACTTGTCTAG)” it was 1.7.
In the case of “CAGACGCCTTGGGTTCTAACCTGTTGCAG (site CACACTCCTCT)” it was 0.039.
In the case of “CAGACGCCTTGGGTTCTAACCTGTTGCAG (site CAGACGCCTCT)” it was 1.38.
Take “CAGACTCCTTGGGTTCTAACCTGTTGCCT (site CAGACTCCTAG)”: the “recombinant barcode read abundance (log10)” value worked out at 0.214.
In the case of “CAGACTCCTTGGGTTCTAACCTGTTGCCT (site TAGACTACTAG)” it was 0.186; in that of “CAGAGCACTTGGGTTCTAACCTGTTGCCT (site AAGAGCACTAG)”, 0.107.
Consider “CAGAGCACTTGGGTTCTAACCTGTTGCCT (site CAGAGCACTAG)”, for which the “recombinant barcode read abundance (log10)” value worked out at 1.2.
In the case of “CAGAGCACTTGGGTTCTAACCTGTTGCCT (site GAGAGCACTAG)” it was 0.185.
Consider “CAGAGCACTTGGGTTCTAACCTGTTGCCT (site TAGAGCACTAG)”, for which the “recombinant barcode read abundance (log10)” value was 0.138.
In the case of “CAGAGTACTTGGGTTCTAACCTGTTGCCT (site CACAGTGCTAG)” it was 0.0547; in that of “CAGAGTACTTGGGTTCTAACCTGTTGCCT (site CAGAGTACTAG)”, 0.216; in that of “CAGAGTCCTTGGGTTCTAACCTGTTGCTT (site CAGAGTCCTAA)”, 1.59.
In the case of “CAGAGTCCTTGGGTTCTAACCTGTTGCTT (site CATAGTCCTAG)” it was 0.105; in that of “CAGCACCCTTGGGTTCTAACCTGTTGCGG (site CAGCACCCTCC)”, 0.515.
Regarding “CAGCACCCTTGGGTTCTAACCTGTTGCGG (site CGGTACCCTCC)”, the “recombinant barcode read abundance (log10)” value was 0.13.
In the case of “CAGCAGCCTTGGGTTCTAACCTGTTGCTT (site CAGCAGCCTAA)” it was 0.742; in that of “CAGCAGCCTTGGGTTCTAACCTGTTGCTT (site TCCGTTACTCG)”, 0.0126.
In the case of “CAGCATCCTTGGGTTCTAACCTGTTGCAG (site ATCACGTCTAG)” it was 0.157.
In the case of “CAGCATCCTTGGGTTCTAACCTGTTGCAG (site CAGCATCCTCT)” it was 1.11; in that of “CAGCGGCCTTGGGTTCTAACCTGTTGCCT (site CAGAGGCCTAG)”, 0.191; in that of “CAGCGGCCTTGGGTTCTAACCTGTTGCCT (site CAGCGGCCTAG)”, 0.288.
For “CAGCGGCCTTGGGTTCTAACCTGTTGCCT (site CAGGGGCCTAG)”, the “recombinant barcode read abundance (log10)” value was 0.121.
In the case of “CAGCGGCCTTGGGTTCTAACCTGTTGCCT (site CAGTGGCCTAG)” it was 0.718; in that of “CAGGACCCTTGGGTTCTAACCTGTTGCCT (site CAAGACCCTAG)”, 1.93.
As to “CAGGACCCTTGGGTTCTAACCTGTTGCCT (site CACGACCCTAG)”, the “recombinant barcode read abundance (log10)” value is 0.437.
In the case of “CAGGACCCTTGGGTTCTAACCTGTTGCCT (site CAGGACCCTAG)” it was 2.18.
In the case of “CAGGACCCTTGGGTTCTAACCTGTTGCCT (site CATGACCCTAG)” it was 0.409.
In the case of “CAGGATGCTTGGGTTCTAACCTGTTGCCT (site CAAGATGCTAG)” it was 0.731.
“CAGGATGCTTGGGTTCTAACCTGTTGCCT (site CACGATGCTAG)”: the “recombinant barcode read abundance (log10)” value came to 0.0431.
In the case of “CAGGATGCTTGGGTTCTAACCTGTTGCCT (site CAGGATGCTAG)” it was 1.35.
For “CAGGATGCTTGGGTTCTAACCTGTTGCCT (site CATGATGCTAG)”, the “recombinant barcode read abundance (log10)” value was determined as 0.0284.
In the case of “CAGGCGTCTTGGGTTCTAACCTGTTGCAC (site CAGGCGTCTGT)” it was 1.12; in that of “CAGGCGTCTTGGGTTCTAACCTGTTGCAC (site GAGGGGTCTGT)”, 0.142; in that of “CAGGGCCCTTGGGTTCTAACCTGTTGCCT (site AAGGGCCCTAG)”, 0.329.
In the case of “CAGGGCCCTTGGGTTCTAACCTGTTGCCT (site CAGGGCCCTAG)” it was 2.14; in that of “CAGGGCCCTTGGGTTCTAACCTGTTGCCT (site GAGGGCCCTAG)”, 0.527.
For the sequence “CAGGGCCCTTGGGTTCTAACCTGTTGCCT (site TAGGGCCCTAG)”, the “recombinant barcode read abundance (log10)” value is 0.397.
As to “CAGGGGACTTGGGTTCTAACCTGTTGCCA (site CAGGGGACTTG)”, the “recombinant barcode read abundance (log10)” value turned out to be 1.04.
In the case of “CAGGGGACTTGGGTTCTAACCTGTTGCCA (site CCGTGGACTTG)” it was 0.217; in that of “CAGGGGCCTTGGGTTCTAACCTGTTGCCT (site CAGAGGCCTAG)”, 0.0366; in that of “CAGGGGCCTTGGGTTCTAACCTGTTGCCT (site CAGCGGCCTAG)”, 0.187.
As for “CAGGGGCCTTGGGTTCTAACCTGTTGCCT (site CAGGGGCCTAG)”, the “recombinant barcode read abundance (log10)” value amounted to 1.97.
For the sequence “CAGGGGCCTTGGGTTCTAACCTGTTGCCT (site CAGTGGCCTAG)”, the “recombinant barcode read abundance (log10)” value is 0.185.
In the case of “CAGGTACCTTGGGTTCTAACCTGTTGCAG (site CAGGTACCTAT)” it was 0.368; in that of “CAGGTACCTTGGGTTCTAACCTGTTGCAG (site CAGGTACCTCT)”, 3.12; in that of “CAGGTGCCTTGGGTTCTAACCTGTTGCCT (site CAGGTGCCTAG)”, 2.25.
In the case of “CAGGTGCCTTGGGTTCTAACCTGTTGCCT (site CCGGTGCCTAG)” it was 0.216; in that of “CAGGTGCCTTGGGTTCTAACCTGTTGCCT (site CGGGTGCCTAG)”, 0.122.
On to “CAGGTGCCTTGGGTTCTAACCTGTTGCCT (site CTGGTGCCTAG)”, for which the “recombinant barcode read abundance (log10)” value amounted to 0.526.
Regarding “CAGTAGTCTTGGGTTCTAACCTGTTGCCT (site CAGTAATCTAG)”, the “recombinant barcode read abundance (log10)” value is 0.579.
In the case of “CAGTAGTCTTGGGTTCTAACCTGTTGCCT (site CAGTACTCTAG)” it was 0.155; in that of “CAGTAGTCTTGGGTTCTAACCTGTTGCCT (site CAGTAGTCTAG)”, 1.07.
In the case of “CAGTAGTCTTGGGTTCTAACCTGTTGCCT (site CAGTATTCTAG)” it was 0.0913.
In the case of “CAGTATTCTTGGGTTCTAACCTGTTGCCT (site CAGTAATCTAG)” it was 0.0186; in that of “CAGTATTCTTGGGTTCTAACCTGTTGCCT (site CAGTACTCTAG)”, 0.116; in that of “CAGTATTCTTGGGTTCTAACCTGTTGCCT (site CAGTAGTCTAG)”, 0.0496.
On to “CAGTATTCTTGGGTTCTAACCTGTTGCCT (site CAGTATTCTAG)”, for which the “recombinant barcode read abundance (log10)” value was 0.702.
In the case of “CAGTCTACTTGGGTTCTAACCTGTTGCGT (site CAGTCTACTAC)” it was 0.308; in that of “CAGTCTACTTGGGTTCTAACCTGTTGCGT (site TCAAGCCCTCT)”, 0.292.
In the case of “CAGTCTGCTTGGGTTCTAACCTGTTGCCT (site CAATCTGCTAG)” it was 0.141; in that of “CAGTCTGCTTGGGTTCTAACCTGTTGCCT (site CACTCTGCTAG)”, 0.0321; in that of “CAGTCTGCTTGGGTTCTAACCTGTTGCCT (site CAGTCTGCTAG)”, 0.512.
In the case of “CAGTCTGCTTGGGTTCTAACCTGTTGCCT (site CATTCTGCTAG)” it was 0.182; in that of “CAGTTAGCTTGGGTTCTAACCTGTTGCCT (site CAGTTAGCTAG)”, 0.642.
As to “CAGTTAGCTTGGGTTCTAACCTGTTGCCT (site CAGTTCGCTAG)”, the “recombinant barcode read abundance (log10)” value amounted to 0.182.
In the case of “CAGTTAGCTTGGGTTCTAACCTGTTGCCT (site CAGTTGGCTAG)” it was 0.0405; in that of “CAGTTAGCTTGGGTTCTAACCTGTTGCCT (site CAGTTTGCTAG)”, 0.192.
Regarding “CAGTTGGCTTGGGTTCTAACCTGTTGCCT (site CAGTTAGCTAG)”, the “recombinant barcode read abundance (log10)” value was found to be 0.04.
In the case of “CAGTTGGCTTGGGTTCTAACCTGTTGCCT (site CAGTTCGCTAG)” it was 0.0864.
Consider “CAGTTGGCTTGGGTTCTAACCTGTTGCCT (site CAGTTGGCTAG)”, for which the “recombinant barcode read abundance (log10)” value is 1.01.
“CAGTTGGCTTGGGTTCTAACCTGTTGCCT (site CAGTTTGCTAG)”: the “recombinant barcode read abundance (log10)” value stood at 0.232.
